Measured values from ChEMBL document CHEMBL4316596, “Antimicrobial Peptides with High Proteolytic Resistance for Combating Gram-Negative Bacteria” (J Med Chem, 2019).
Converted amounts (≈) assume the structure as drawn.

Assays:
Pseudomonas aeruginosa [1] = experiment: Antimicrobial activity against Pseudomonas aeruginosa CICC 21625 clinical isolates after 24 hrs by NCCLS-protocol based assay; format: functional; conditions: CICC 21625, 24 h
[2] = Bactericidal activity against Salmonella pullorum C7913 incubated for 4 hrs followed by culture spread on agar plates and cultured overnight; format: functional, Salmonella enterica subsp. enterica serovar Pullorum; conditions: Salmonella enterica, C7913, 4 h; read-out: MBC>99.9
Pseudomonas aeruginosa [3] = experiment: Bactericidal activity against Pseudomonas aeruginosa 25349 clinical isolates incubated for 4 hrs followed by culture spread on agar plates and cultured overnight; format: functional; conditions: Pseudomonas aeruginosa, 25349, 4 h; read-out: MBC>99.9
Pseudomonas aeruginosa [4] = experiment: Antimicrobial activity against Pseudomonas aeruginosa CICC 21630 clinical isolates after 24 hrs by NCCLS-protocol based assay; format: functional; conditions: CICC 21630, 24 h
Escherichia coli [5] = experiment: Antimicrobial activity against Escherichia coli K99 after 24 hrs by NCCLS-protocol based assay; format: functional; conditions: K99, 24 h
Escherichia coli [6] = experiment: Bactericidal activity against Escherichia coli 078 incubated for 4 hrs followed by culture spread on agar plates and cultured overnight; format: functional; conditions: Escherichia coli, 078, 4 h; read-out: MBC>99.9
Pseudomonas aeruginosa [7] = experiment: Bactericidal activity against Pseudomonas aeruginosa CICC 21625 clinical isolates incubated for 4 hrs followed by culture spread on agar plates and cultured overnight; format: functional; conditions: CICC 21625, 4 h, read-out: MBC>99.9
Pseudomonas aeruginosa [8] = experiment: Bactericidal activity against Pseudomonas aeruginosa PAO1 incubated for 4 hrs followed by culture spread on agar plates and cultured overnight; format: functional; conditions: PAO1, 4 h, read-out: MBC>99.9
Escherichia coli [9] = experiment: Bactericidal activity against Escherichia coli K99 incubated for 4 hrs followed by culture spread on agar plates and cultured overnight; format: functional; conditions: K99, 4 h, read-out: MBC>99.9
Escherichia coli [10] = experiment: Antimicrobial activity against Escherichia coli ATCC 25922 after 24 hrs by NCCLS-protocol based assay; format: functional; conditions: ATCC 25922, 24 h
Pseudomonas aeruginosa [11] = experiment: Antimicrobial activity against Pseudomonas aeruginosa ATCC 27853 after 24 hrs by NCCLS-protocol based assay; format: functional; conditions: ATCC 27853, 24 h
Escherichia coli [12] = experiment: Bactericidal activity against Escherichia coli UB1005 incubated for 4 hrs followed by culture spread on agar plates and cultured overnight; format: functional; conditions: UB1005, 4 h, read-out: MBC>99.9
Acinetobacter baumannii [13] = experiment: Bactericidal activity against Acinetobacter baumannii incubated for 4 hrs followed by culture spread on agar plates and cultured overnight; format: functional; conditions: read-out: MBC>99.9
Escherichia coli [14] = experiment: Antimicrobial activity against Escherichia coli UB1005 after 24 hrs by NCCLS-protocol based assay; format: functional; conditions: UB1005, 24 h
Escherichia coli [15] = experiment: Bactericidal activity against Escherichia coli ATCC 25922 incubated for 4 hrs followed by culture spread on agar plates and cultured overnight; format: functional; conditions: ATCC 25922, 4 h, read-out: MBC>99.9
Pseudomonas aeruginosa [16] = experiment: Antimicrobial activity against Pseudomonas aeruginosa 25349 clinical isolates after 24 hrs by NCCLS-protocol based assay; format: functional; conditions: Pseudomonas aeruginosa, 25349, 24 h
Pseudomonas aeruginosa [17] = experiment: Bactericidal activity against Pseudomonas aeruginosa ATCC 27853 incubated for 4 hrs followed by culture spread on agar plates and cultured overnight; format: functional; conditions: ATCC 27853, 4 h, read-out: MBC>99.9
Escherichia coli [18] = experiment: Bactericidal activity against Escherichia coli K88 incubated for 4 hrs followed by culture spread on agar plates and cultured overnight; format: functional; conditions: K88, 4 h, read-out: MBC>99.9
Klebsiella pneumoniae [19] = experiment: Bactericidal activity against Klebsiella pneumoniae incubated for 4 hrs followed by culture spread on agar plates and cultured overnight; format: functional; conditions: read-out: MBC>99.9
Salmonella typhimurium [20] = experiment: Bactericidal activity against Salmonella typhimurium C7731 incubated for 4 hrs followed by culture spread on agar plates and cultured overnight; format: functional, Salmonella enterica subsp. enterica serovar Typhimurium; conditions: Salmonella enterica, C7731, 4 h; read-out: MBC>99.9
Pseudomonas aeruginosa [21] = experiment: Antimicrobial activity against Pseudomonas aeruginosa 26305 clinical isolates after 24 hrs by NCCLS-protocol based assay; format: functional; conditions: Pseudomonas aeruginosa, 26305, 24 h
Klebsiella pneumoniae [22] = experiment: Antimicrobial activity against Klebsiella pneumoniae after 24 hrs by NCCLS-protocol based assay; format: functional
Pseudomonas aeruginosa [23] = experiment: Bactericidal activity against Pseudomonas aeruginosa 26305 clinical isolates incubated for 4 hrs followed by culture spread on agar plates and cultured overnight; format: functional; conditions: Pseudomonas aeruginosa, 26305, 4 h; read-out: MBC>99.9
Pseudomonas aeruginosa [24] = experiment: Bactericidal activity against Pseudomonas aeruginosa CICC 21630 clinical isolates incubated for 4 hrs followed by culture spread on agar plates and cultured overnight; format: functional; conditions: CICC 21630, 4 h, read-out: MBC>99.9
Salmonella typhimurium [25] = experiment: Antimicrobial activity against Salmonella typhimurium ATCC 14028 after 24 hrs by NCCLS-protocol based assay; format: functional, Salmonella enterica subsp. enterica serovar Typhimurium; conditions: Salmonella enterica, ATCC 14028, 24 h
Acinetobacter baumannii [26] = experiment: Antimicrobial activity against Acinetobacter baumannii after 24 hrs by NCCLS-protocol based assay; format: functional
Salmonella typhimurium [27] = experiment: Bactericidal activity against Salmonella typhimurium ATCC 14028 incubated for 4 hrs followed by culture spread on agar plates and cultured overnight; format: functional, Salmonella enterica subsp. enterica serovar Typhimurium; conditions: Salmonella enterica, ATCC 14028, 4 h; read-out: MBC>99.9
Pseudomonas aeruginosa [28] = experiment: Antimicrobial activity against Pseudomonas aeruginosa PAO1 after 24 hrs by NCCLS-protocol based assay; format: functional; conditions: PAO1, 24 h
[29] = Antimicrobial activity against Salmonella pullorum C7913 after 24 hrs by NCCLS-protocol based assay; format: functional, Salmonella enterica subsp. enterica serovar Pullorum; conditions: Salmonella enterica, C7913, 24 h
Escherichia coli [30] = experiment: Antimicrobial activity against Escherichia coli 078 after 24 hrs by NCCLS-protocol based assay; format: functional; conditions: Escherichia coli, 078, 24 h
Salmonella typhimurium [31] = experiment: Antimicrobial activity against Salmonella typhimurium C7731 after 24 hrs by NCCLS-protocol based assay; format: functional, Salmonella enterica subsp. enterica serovar Typhimurium; conditions: Salmonella enterica, C7731, 24 h
Escherichia coli [32] = experiment: Antimicrobial activity against Escherichia coli K88 after 24 hrs by NCCLS-protocol based assay; format: functional; conditions: K88, 24 h

Compound	MIC95 (Pseudomonas aeruginosa [1]) [µM]	MBC [2] [µM]	MBC (Pseudomonas aeruginosa [3]) [µM]	MIC95 (Pseudomonas aeruginosa [4]) [µM]	MIC95 (Escherichia coli [5]) [µM]	MBC (Escherichia coli [6]) [µM]	MBC (Pseudomonas aeruginosa [7]) [µM]	MBC (Pseudomonas aeruginosa [8]) [µM]	MBC (Escherichia coli [9]) [µM]	MIC95 (Escherichia coli [10]) [µM]	MIC95 (Pseudomonas aeruginosa [11]) [µM]	MBC (Escherichia coli [12]) [µM]	MBC (Acinetobacter baumannii [13]) [µM]	MIC95 (Escherichia coli [14]) [µM]	MBC (Escherichia coli [15]) [µM]	MIC95 (Pseudomonas aeruginosa [16]) [µM]	MBC (Pseudomonas aeruginosa [17]) [µM]	MBC (Escherichia coli [18]) [µM]	MBC (Klebsiella pneumoniae [19]) [µM]	MBC (Salmonella typhimurium [20]) [µM]	further results
H-LKPLLKPLLKPLLKPL-NH2	> 64	64	> 64	> 64	16	64	> 64	> 64	32	16	> 64	64	8	16	32	> 64	> 64	16	> 64	> 64	MIC95 (Pseudomonas aeruginosa [21]): > 64 µM; MIC95 (Klebsiella pneumoniae [22]): > 64 µM; MBC (Pseudomonas aeruginosa [23]): > 64 µM; MBC (Pseudomonas aeruginosa [24]): > 64 µM; MIC95 (Salmonella typhimurium [25]): > 64 µM; MIC95 (Acinetobacter baumannii [26]): 4 µM; MBC (Salmonella typhimurium [27]): > 64 µM; MIC95 (Pseudomonas aeruginosa [28]): > 64 µM; MIC95 [29]: 32 µM; MIC95 (Escherichia coli [30]): 32 µM; MIC95 (Salmonella typhimurium [31]): > 64 µM; MIC95 (Escherichia coli [32]): 16 µM
H-LRPLLRPLLRPLLRPLLRPLLRPLLRPLLRPL-NH2	8	2	4	4	1	2	8	4	2	2	2	4	1	2	2	2	4	1	4	4	MIC95 (Pseudomonas aeruginosa [21]): 2 µM; MIC95 (Klebsiella pneumoniae [22]): 2 µM; MBC (Pseudomonas aeruginosa [23]): 4 µM; MBC (Pseudomonas aeruginosa [24]): 4 µM; MIC95 (Salmonella typhimurium [25]): 2 µM; MIC95 (Acinetobacter baumannii [26]): 1 µM; MBC (Salmonella typhimurium [27]): 4 µM; MIC95 (Pseudomonas aeruginosa [28]): 2 µM; MIC95 [29]: 1 µM; MIC95 (Escherichia coli [30]): 1 µM; MIC95 (Salmonella typhimurium [31]): 2 µM; MIC95 (Escherichia coli [32]): 1 µM
NCC[C@H](O)C(=O)N[C@@H]1C[C@H](N)[C@@H](O[C@H]2O[C@H](CN)[C@@H](O)[C@H](O)[C@H]2O)[C@H](O)[C@H]1O[C@H]1O[C@H](CO)[C@@H](O)[C@H](N)[C@H]1O [AMIKACIN]	0.125 (≈ 0.0732 µg/mL)	0.0625 (≈ 0.0366 µg/mL)	0.25 (≈ 0.146 µg/mL)	0.125 (≈ 0.0732 µg/mL)	0.0625 (≈ 0.0366 µg/mL)	0.0625 (≈ 0.0366 µg/mL)	0.25 (≈ 0.146 µg/mL)	0.125 (≈ 0.0732 µg/mL)	0.125 (≈ 0.0732 µg/mL)	0.0625 (≈ 0.0366 µg/mL)	0.125 (≈ 0.0732 µg/mL)	0.125 (≈ 0.0732 µg/mL)	0.125 (≈ 0.0732 µg/mL)	0.0625 (≈ 0.0366 µg/mL)	0.125 (≈ 0.0732 µg/mL)	0.25 (≈ 0.146 µg/mL)	0.25 (≈ 0.146 µg/mL)	0.0625 (≈ 0.0366 µg/mL)	0.125 (≈ 0.0732 µg/mL)	0.125 (≈ 0.0732 µg/mL)	MIC95 (Pseudomonas aeruginosa [21]): > 64 µM; MIC95 (Klebsiella pneumoniae [22]): 0.0625 µM (≈ 0.0366 µg/mL); MBC (Pseudomonas aeruginosa [23]): > 64 µM; MBC (Pseudomonas aeruginosa [24]): 0.125 µM (≈ 0.0732 µg/mL); MIC95 (Salmonella typhimurium [25]): 0.125 µM (≈ 0.0732 µg/mL); MIC95 (Acinetobacter baumannii [26]): 0.0625 µM (≈ 0.0366 µg/mL); MBC (Salmonella typhimurium [27]): 0.125 µM (≈ 0.0732 µg/mL); MIC95 (Pseudomonas aeruginosa [28]): 0.0625 µM (≈ 0.0366 µg/mL); MIC95 [29]: 0.0625 µM (≈ 0.0366 µg/mL); MIC95 (Escherichia coli [30]): 0.0625 µM (≈ 0.0366 µg/mL); MIC95 (Salmonella typhimurium [31]): 0.0625 µM (≈ 0.0366 µg/mL); MIC95 (Escherichia coli [32]): 0.0625 µM (≈ 0.0366 µg/mL)
H-LKPLLKPLLKPLLKPLLKPL-NH2	> 64	8	64	32	2	8	> 64	> 64	4	2	16	8	4	2	4	32	16	2	64	16	MIC95 (Pseudomonas aeruginosa [21]): 32 µM; MIC95 (Klebsiella pneumoniae [22]): 32 µM; MBC (Pseudomonas aeruginosa [23]): 64 µM; MBC (Pseudomonas aeruginosa [24]): 64 µM; MIC95 (Salmonella typhimurium [25]): 8 µM; MIC95 (Acinetobacter baumannii [26]): 4 µM; MBC (Salmonella typhimurium [27]): 16 µM; MIC95 (Pseudomonas aeruginosa [28]): > 64 µM; MIC95 [29]: 4 µM; MIC95 (Escherichia coli [30]): 4 µM; MIC95 (Salmonella typhimurium [31]): 16 µM; MIC95 (Escherichia coli [32]): 2 µM
